This is an account of results in patent US11548889B2, “Emetine auristatin compounds” (Arizona Board of Regents on behalf of Arizona State …, priority 2019, dated 2023).

For one data set, the system named is Human Cancer Cell Lines. Kind of data set: Human cancer cell growth inhibition, summary over the six cell line panel. It counts as cell-based. To be noted: for biological activity (cancer cell growth inhibition): six cell line panel; for decrease in biological activity compared to both emetine and Compound 5: in four cell lines. The method, then: (§1) Cancer Cell Line Procedures. Human cancer cell growth inhibition was measured using the standard sulforhodamine B assay of the U.S. National Cancer Institute, as previously described.^12 Briefly, cells in a 5% fetal bovine serum/RPMI1640 medium were inoculated in 96-well plates and incubated for 24 h. That was followed by serial dilutions of the compounds added. Forty-eight hours later the plates were fixed with trichloroacetic acid, stained with sulforhodamine B, and read with an automated microplate reader.
(§2) Next, growth inhibition of 50% (GI50 or the drug concentration causing a 50% reduction in the net protein increase) was calculated from optical density data with Immunosoft® software.

The subject of another data set is NCI-H460 (lung). The data set can be described thus: Human cancer cell growth inhibition, sulforhodamine B assay (NCI). It counts as cell-based. As for the experimental part: as §1, §2
Background: In SRB staining, fixed cells bind dye roughly in proportion to their protein.

Another data set relates to MCF-7 (breast). The data set is described as above. Format: cell-based. As for the experimental part: as §1, §2
Another data set deals with KM20L2 (colon). The data set is described as above. It counts as cell-based. As for the experimental part:
as §1, §2

The next data set relates to DU-145 (prostate). The data set is described as above. It counts as cell-based. The method, then:
as §1, §2

Another data set has as its system BXPC-3 (pancreas). The description is as above. Format: cell-based. The method, then:
as §1, §2

A further data set concerns SF-268 (CNS). The description is as above. It counts as cell-based. As for the experimental part: as §1
Data set [1] has as its system NCI 60 Cancer cell screen. To be noted: cited from earlier work.
Setting [2] is: NCI-H460, 48 h, sulforhodamine B.

Where a name gives a salt, the structure may show the parent alone. Read-outs that look alike come from different tables or passages of the source.

Usually GI50 stands for the concentration that inhibits growth by half.

In the case of `CC[C@H]1CN2CCc3cc(OC)c(OC)cc3C2C[C@@H]1C[C@@H]1c2cc(OC)c(OC)cc2CCN1C(=O)[C@H](C)[C@@H](OC)C1CCCN1C(=O)C[C@@H](OC)[C@H]([C@@H](C)CC)N(C)C(=O)[C@@H](NC(=O)[C@H](C(C)C)N(C)C)C(C)C` (stereo in doubt) [Compound 5, 2N′-(Dov-Val-Dil-Dap)-Emetine], the “cytotoxicity relative to emetine” value in the data set on Human Cancer Cell Lines (in four of the six cell lines) is recorded as “comparable to that of emetine”. The GI50 in the data set with NCI-H460 (lung) (Homo sapiens, NCI-H460) was determined as 0.198 µM; in the data set on NCI-H460 (lung) (Homo sapiens, NCI-H460, 48 h), 0.21 µg/mL; in the data set on MCF-7 (breast) (Homo sapiens, MCF7) it was 0.0358 µM; in the data set with MCF-7 (breast) (Homo sapiens, MCF7, 48 h), 0.038 µg/mL; in the data set with KM20L2 (colon) (Homo sapiens, KM-20L2) it was 0.0358 µM; in the data set with KM20L2 (colon) (Homo sapiens, KM-20L2, 48 h), 0.038 µg/mL. Also, the GI50 in the data set on DU-145 (prostate) (Homo sapiens, DU-145) came to 0.0123 µM; in the data set on DU-145 (prostate) (Homo sapiens, DU-145, 48 h) it was 0.013 µg/mL; in the data set on BXPC-3 (pancreas) (Homo sapiens, BXPC-3) it was 0.387 µM; in the data set on BXPC-3 (pancreas) (Homo sapiens, BXPC-3, 48 h) it was 0.41 µg/mL; in the data set with SF-268 (CNS) (Homo sapiens, SF-268) it was 0.0302 µM; with SF-268 (CNS) (Homo sapiens, SF-268, 48 h), 0.032 µg/mL. Besides, the “decrease in activity compared to emetine” value with BXPC-3 (pancreas) (BXPC-3 cell line) was 10 fold.
As to `CC[C@H]1CN2CCc3cc(OC)c(OC)cc3[C@@H]2C[C@@H]1C[C@H]1NCCc2cc(OC)c(OC)cc21` [Compound 1, emetine dihydrochloride, reference compound], the GI50 worked out at 0.022 µg/mL in the data set on NCI-H460 (lung) (Homo sapiens, NCI-H460, 48 h, sulforhodamine B, read-out: GI50); 0.0397 µM in the data set on NCI-H460 (lung) (Homo sapiens, NCI-H460, value in brackets, read-out: GI50); 0.03 µg/mL in the data set with MCF-7 (breast) (Homo sapiens, MCF7, MCF-7, 48 h, sulforhodamine B, read-out: GI50); 0.0542 µM in the data set with MCF-7 (breast) (Homo sapiens, MCF7, MCF-7, value in brackets, read-out: GI50); 0.026 µg/mL with KM20L2 (colon) (Homo sapiens, KM-20L2, KM20L2, 48 h, sulforhodamine B, read-out: GI50); 0.047 µM in the data set on KM20L2 (colon) (Homo sapiens, KM-20L2, KM20L2, value in brackets, read-out: GI50). The GI50 was determined as 0.02 µg/mL in the data set on DU-145 (prostate) (Homo sapiens, DU-145, 48 h, sulforhodamine B, read-out: GI50); 0.0361 µM in the data set on DU-145 (prostate) (Homo sapiens, DU-145, value in brackets, read-out: GI50); 0.031 µg/mL in the data set with BXPC-3 (pancreas) (Homo sapiens, BXPC-3, 48 h, sulforhodamine B, read-out: GI50); 0.056 µM in the data set on BXPC-3 (pancreas) (Homo sapiens, BXPC-3, value in brackets, read-out: GI50).
For `CCC1CN2CCc3cc(OC)c(OC)cc3C2CC1CC1c2cc(OC)c(OC)cc2CCN1C(=O)C(C)C(OC)C1CCCN1.O=C(O)C(F)(F)F` (stereo not shown) [Compound 3, 2′-N-(Dap)-emetine TFA salt], the “decrease in activity compared to emetine” value in the data set on Human Cancer Cell Lines (in all six cell lines) is on record as 100 fold. Further, the GI50 came to 5.0 µg/mL with NCI-H460 (lung) (setting [2]); 5.7 µM with NCI-H460 (lung) (NCI-H460, value in brackets, read-out: GI50); 1.4 µg/mL in the data set with MCF-7 (breast) (MCF-7, 48 h, sulforhodamine B); 1.6 µM with MCF-7 (breast) (MCF-7, value in brackets, read-out: GI50); 3.0 µg/mL in the data set on KM20L2 (colon) (KM20L2, 48 h, sulforhodamine B); 3.42 µM with KM20L2 (colon) (KM20L2, value in brackets, read-out: GI50). The GI50 is 3.0 µg/mL with DU-145 (prostate) (DU-145, 48 h, sulforhodamine B); 3.42 µM with DU-145 (prostate) (DU-145, value in brackets, read-out: GI50); 2.1 µg/mL in the data set on BXPC-3 (pancreas) (BXPC-3, 48 h, sulforhodamine B); 2.39 µM in the data set on BXPC-3 (pancreas) (BXPC-3, value in brackets, read-out: GI50); 3.2 µg/mL in the data set with SF-268 (CNS) (SF-268, 48 h, sulforhodamine B); 3.65 µM with SF-268 (CNS) (SF-268, value in brackets, read-out: GI50).
`CCC1CN2CCc3cc(OC)c(OC)cc3C2CC1CC1c2cc(OC)c(OC)cc2CCN1C(=O)CCNC(=O)OC(C)(C)C` (stereo not drawn) [Compound 6, 2′-(N-carboxy-β-alanyl)-tert-butyl emetine ester]: in the data set with Human Cancer Cell Lines, the “biological activity (cancer cell growth inhibition)” value was “inactive”. Moreover, the GI50 in the data set with NCI-H460 (lung) (setting [2]) is over 10 µg/mL; in the data set on MCF-7 (breast) (MCF-7, 48 h, sulforhodamine B), 10 µg/mL; with KM20L2 (colon) (KM20L2, 48 h, sulforhodamine B) it was over 10 µg/mL; in the data set with DU-145 (prostate) (DU-145, 48 h, sulforhodamine B), over 10 µg/mL; with BXPC-3 (pancreas) (BXPC-3, 48 h, sulforhodamine B) it was over 10 µg/mL; with SF-268 (CNS) (SF-268, 48 h, sulforhodamine B), over 10 µg/mL.
In the case of `CC[C@H]1CN2CCc3cc(OC)c(OC)cc3C2C[C@@H]1C[C@@H]1c2cc(OC)c(OC)cc2CCN1C(=O)CCN` (stereo partly drawn) [Compound 7, 2′-N-(β-alanine)-emetine TFA salt], the “biological activity (cancer cell growth inhibition)” value with Human Cancer Cell Lines is “inactive”. The GI50 in the data set with NCI-H460 (lung) (Homo sapiens, NCI-H460, 48 h) is over 10 µg/mL; with MCF-7 (breast) (Homo sapiens, MCF7, 48 h) it was over 10 µg/mL; with KM20L2 (colon) (Homo sapiens, KM-20L2, 48 h), over 10 µg/mL; in the data set on DU-145 (prostate) (Homo sapiens, DU-145, 48 h), 10.1 µg/mL; with BXPC-3 (pancreas) (Homo sapiens, BXPC-3, 48 h), 10.3 µg/mL; in the data set with SF-268 (CNS) (Homo sapiens, SF-268, 48 h), over 10 µg/mL.
Turning to `CCC1CN2CCc3cc(OC)c(OC)cc3C2CC1CC1c2cc(OC)c(OC)cc2CCN1C(=O)CCNC(=O)C(C)C(OC)C1CCCN1C(=O)OC(C)(C)C` (stereo not shown) [Compound 8, 2′-N-(boc-dap-[…]-ala)-emetine], the “biological activity (cancer cell growth inhibition)” value with Human Cancer Cell Lines was “inactive”. Further, the GI50 was over 10 µg/mL in the data set on NCI-H460 (lung) (setting [2]); over 10 µg/mL in the data set with MCF-7 (breast) (MCF-7, 48 h, sulforhodamine B); over 10 µg/mL in the data set on KM20L2 (colon) (KM20L2, 48 h, sulforhodamine B); 10.0 µg/mL with DU-145 (prostate) (DU-145, 48 h, sulforhodamine B); over 10 µg/mL with BXPC-3 (pancreas) (BXPC-3, 48 h, sulforhodamine B); over 10 µg/mL in the data set on SF-268 (CNS) (SF-268, 48 h, sulforhodamine B).
For the compound `CC[C@H]1CN2CCc3cc(OC)c(OC)cc3C2C[C@@H]1C[C@@H]1c2cc(OC)c(OC)cc2CCN1C(=O)CCNC(=O)[C@H](C)[C@@H](OC)C1CCCN1C(=O)C[C@@H](OC)C([C@@H](C)CC)N(C)C(=O)[C@@H](NC(=O)[C@H](C(C)C)N(C)C)C(C)C` (stereo partly drawn) [Compound 9, Dov-Val-Dil-Dap-β-Ala-Emetine], the “decrease in biological activity compared to both emetine and Compound 5” value in the data set with Human Cancer Cell Lines is recorded as 10 fold. For the same compound, the GI50 worked out at 2.83 µM in the data set with NCI-H460 (lung) (Homo sapiens, NCI-H460); 3.2 µg/mL in the data set on NCI-H460 (lung) (Homo sapiens, NCI-H460, 48 h); 0.159 µM in the data set with MCF-7 (breast) (Homo sapiens, MCF7); 0.18 µg/mL with MCF-7 (breast) (Homo sapiens, MCF7, 48 h); 0.194 µM in the data set with KM20L2 (colon) (Homo sapiens, KM-20L2); 0.22 µg/mL in the data set with KM20L2 (colon) (Homo sapiens, KM-20L2, 48 h). The GI50 turned out to be 0.0972 µM with DU-145 (prostate) (Homo sapiens, DU-145); 0.11 µg/mL in the data set with DU-145 (prostate) (Homo sapiens, DU-145, 48 h); 3.8 µM in the data set on BXPC-3 (pancreas) (Homo sapiens, BXPC-3); 4.3 µg/mL in the data set with BXPC-3 (pancreas) (Homo sapiens, BXPC-3, 48 h); 0.186 µM with SF-268 (CNS) (Homo sapiens, SF-268); 0.21 µg/mL in the data set with SF-268 (CNS) (Homo sapiens, SF-268, 48 h).
On to `CC[C@H]1CN2CCc3cc(OC)c(OC)cc3C2C[C@@H]1C[C@@H]1c2cc(OC)c(OC)cc2CCN1CCNC(=O)[C@H](C)[C@@H](OC)C1CCCN1C(=O)C[C@@H](OC)C([C@@H](C)CC)N(C)C(=O)[C@@H](NC(=O)[C@H](C(C)C)N(C)C)C(C)C` (stereo partly drawn) [Compound 10, 2′-N-(ethylamine-N-Dap-Dil-Val-Dov)-Emetine], for which the “decrease in biological activity compared to both emetine and Compound 5” value in the data set on Human Cancer Cell Lines came out at 10 fold. Moreover, the GI50 in the data set with NCI-H460 (lung) (Homo sapiens, NCI-H460) amounted to 4.53 µM; with NCI-H460 (lung) (Homo sapiens, NCI-H460, 48 h) it was 5 µg/mL; in the data set with MCF-7 (breast) (Homo sapiens, MCF7), 0.118 µM; with MCF-7 (breast) (Homo sapiens, MCF7, 48 h), 0.13 µg/mL; with KM20L2 (colon) (Homo sapiens, KM-20L2), 0.362 µM; with KM20L2 (colon) (Homo sapiens, KM-20L2, 48 h) it was 0.4 µg/mL. Also, the GI50 with DU-145 (prostate) (Homo sapiens, DU-145) is 0.181 µM; in the data set with DU-145 (prostate) (Homo sapiens, DU-145, 48 h), 0.2 µg/mL; with BXPC-3 (pancreas) (Homo sapiens, BXPC-3), 1.9 µM; in the data set with BXPC-3 (pancreas) (Homo sapiens, BXPC-3, 48 h), 2.1 µg/mL; in the data set on SF-268 (CNS) (Homo sapiens, SF-268) it was 0.272 µM; in the data set on SF-268 (CNS) (Homo sapiens, SF-268, 48 h), 0.3 µg/mL.
As for `CC[C@H]1CN2CCc3cc(OC)c(OC)cc3[C@@H]2C[C@@H]1C[C@H]1NCCc2cc(OC)c(OC)cc21` [Emetine], the G150 in data set [1] is 27 nM.
